Assay results reported in ChEMBL document CHEMBL5131544, “Two-Photon Photodynamic Therapy Targeting Cancers with Low Carboxylesterase 2 Activity Guided by Ratiometric Fluorescence” (J Med Chem, 2022).
Active and inactive are the calls of the source. The rule behind the calls is not given here.

Experiments:
[1] = Drug uptake in human PANC-1 cells at 0.5 to 20 uM after 3 hrs under 900 nm light irradiation by two-photon based fluorescence imaging assay; type: ADME, cell-based; conditions: panc-1, 3 h, dose 0.5-20 µM
PANC-1 [2] = assay: Antitumor activity against human PANC-1 tumor spheroids at 20 uM preincubated for 3 hrs followed by compound washout and 900 nm light irradiation by two-photon baseReadyProbes blue/green imaging analysis; type: functional, cell-based
[3] = Induction of ROS production in DBPS at pH 7.4 assessed as DCF production at 20 uM upon 415 nm light irradiation by fluorescence spectra analysis; type: functional
PANC-1 [4] = assay: Induction of cell death in human PANC-1 cells assessed as reduction in cell viability preincubated for 3 hrs followed by compound washout and immediate 900 nm light irradiation and measured 1 hr post light irradiation by two-photon based MTT assay; type: functional
MCF7 [5] = assay: Induction of ROS production in human MCF7 cells at 20 uM incubated for 3 hrs under 415 nm light irradiation by DCFH-DA staining based fluorescence microscopic analysis; type: functional, cell-based
A549 = assay: Phototoxicity against human A549 cells assessed as reduction in cell viability after 3 hrs followed by compound washout and 415 nm light irradiation measured after overnight incubation by MTT assay; type: functional
PANC-1 [6] = assay: Induction of cell death in human PANC-1 cells assessed as reduction in cell viability preincubated for 2 hrs followed by compound washout and immediate 900 nm light irradiation and measured 1 hr post light irradiation by two-photon based ReadyProbes blue/green imaging analysis; type: functional
PANC-1 [7] = assay: Induction of ROS production in human PANC-1 cells at 20 uM preincubated for 3 hrs followed by compound washout and 900 nm light irradiation by DCFH-DA staining based two-photon fluorescence microscopy analysis; type: functional, cell-based
HepG2 = assay: Phototoxicity against human HepG2 cells assessed as reduction in cell viability after 3 hrs followed by compound washout and 415 nm light irradiation measured after overnight incubation by MTT assay; type: functional; conditions: HepG2, light or radiation study
PANC-1 [8] = assay: Induction of apoptosis in human PANC-1 cells assessed as shrinkage of cells at 20 uM preincubated for 3 hrs followed by compound washout and 415 nm light irradiation for 10 mins and measured after 24 hrs post irradiation by Hoeschst-33342/PI staining based assay; type: functional, cell-based
[9] = Induction of singlet oxygen production assessed as singlet oxygen quantum yield at 20 uM upon 415 nm light irradiation by ABDA assay; type: functional
PANC-1 [10] = assay: Induction of apoptosis in human PANC-1 cells assessed as caspase 3 cleavage at 20 uM preincubated for 3 hrs followed by compound washout and 415 nm light irradiation for 10 mins and measured after 20 to 1440 mins post irradiation by Western blot analysis; type: functional, cell-based
MCF7 [11] = assay: Phototoxicity against human MCF7 cells assessed as reduction in cell viability after 3 hrs followed by compound washout and 415 nm light irradiation measured after overnight incubation by MTT assay; type: functional
PANC-1 [12] = assay: Induction of apoptosis in human PANC-1 cells assessed as membrane decomposition at 20 uM preincubated for 3 hrs followed by compound washout and 415 nm light irradiation for 10 mins and measured after 24 hrs post irradiation by Hoeschst-33342/PI staining based assay; type: functional, cell-based
PANC-1 [13] = assay: Induction of apoptosis in human PANC-1 cells assessed as necrosis at 20 uM preincubated for 3 hrs followed by compound washout and 415 nm light irradiation for 10 mins and measured after 24 hrs post irradiation by Hoeschst-33342/PI staining based assay; type: functional, cell-based
PANC-1 [14] = assay: Induction of cell morphological changes in human PANC-1 cells at 20 uM preincubated for 2 hrs followed by compound washout and 900 nm light irradiation measured after 1 hr post irradiation by two-photon based bright field imaging analysis; type: functional
[15] = Dark toxicity against human MCF7 cells assessed as reduction in cell viability after 3 hrs by MTT assay; type: cell-based
PANC-1 [16] = assay: Induction of cell death in human PANC-1 cells assessed as […] cleavage at 20 uM after 6 hrs under 900 nm light irradiation by two-photon based Western blotting analysis; type: functional
PANC-1 [17] = assay: Induction of apoptosis in human PANC-1 cells at 20 uM preincubated for 3 hrs followed by compound washout and 415 nm light irradiation for 10 mins and measured after 20 mins post irradiation by Annexin V-FITC staining based assay; type: functional, cell-based
PANC-1 [18] = assay: Induction of apoptosis in human PANC-1 cells at 20 uM preincubated for 3 hrs followed by compound washout and 415 nm light irradiation for 10 mins and measured after 1 hr post irradiation by Annexin V-FITC staining based assay; type: functional, cell-based
PANC-1 [19] = assay: Induction of apoptosis in human PANC-1 cells at 20 uM preincubated for 3 hrs followed by compound washout and 415 nm light irradiation for 10 mins and measured after 4 to 24 hrs post irradiation by Annexin V-FITC staining based assay; type: functional, cell-based
[20] = Dark toxicity against human HepG2 cells assessed as reduction in cell viability after 3 hrs by MTT assay; type: cell-based
PANC-1 [21] = assay: Induction of ROS production in human PANC-1 cells at 20 uM incubated for 3 hrs under 415 nm light irradiation by DCFH-DA staining based fluorescence microscopic analysis; type: functional, cell-based
PANC-1 [22] = assay: Phototoxicity against human PANC-1 cells assessed as reduction in cell viability after 3 hrs followed by compound washout and 415 nm light irradiation measured after overnight incubation by MTT assay; type: functional
[23] = Dark toxicity against human A549 cells assessed as reduction in cell viability after 3 hrs by MTT assay; type: cell-based
[24] = Dark toxicity against human PANC-1 cells assessed as reduction in cell viability after 3 hrs by MTT assay; type: cell-based
[25] = PANC-1, light or radiation study

Drug uptake [1]: Active
SMILES: O=C(Nc1ccc2c3c(cccc13)C(=O)C=C2)c1ccccc1
Activity (PANC-1 [2]): Active
Activity [3]: Active
Activity (PANC-1 [4]; DDE = dose-dependent effect): Dde
CC50 (PANC-1 [4]; [25]): 647 nM
Activity (MCF7 [5]): Active
CC50 (A549; A549, light or radiation study): 4400 nM
Activity (A549; DDE = dose-dependent effect): Dde
Activity (PANC-1 [6]; DDE = dose-dependent effect): Dde
CC50 (PANC-1 [6]; [25]): 647 nM
Activity (PANC-1 [7]): Active
CC50 (HepG2): > 32000 nM
Activity (PANC-1 [8]): Active
Activity [9]: 0.18
Activity (PANC-1 [10]): Active
Activity (MCF7 [11]; DDE = dose-dependent effect): Dde
CC50 (MCF7 [11]; MCF7, light or radiation study): 1600 nM
Activity (PANC-1 [12]): Active
Activity (PANC-1 [13]): Active
Activity (PANC-1 [14]): Active
CC50 at 3 h [15]: > 32000 nM
Activity (PANC-1 [16]): Active
Activity (PANC-1 [17]): Active
Activity (PANC-1 [18]): Active
Activity (PANC-1 [19]): Active
CC50 at 3 h [20]: > 32000 nM
Activity (PANC-1 [21]): Active
Activity (PANC-1 [22]; DDE = dose-dependent effect): Dde
CC50 (PANC-1 [22]; [25]): 1400 nM
CC50 at 3 h [23]: > 32000 nM
CC50 at 3 h [24]: > 32000 nM
